Experimental data taken from ChEMBL document CHEMBL5241112, “Insights into the recent progress in the medicinal chemistry of pyranopyrimidine analogs” (RSC Med Chem, 2022).
≈ marks a conversion by molar mass, not a printed value.

Tests used:
[1] = tested on: Bacillus pumilus; experiment: Antibacterial activity against Bacillus pumilus assessed as inhibition of bacterial growth by microdilution method; assay type: functional
[2] = tested on: Enterococcus faecalis; experiment: Antibacterial activity against […] assessed as inhibition of bacterial growth by microdilution method; assay type: functional
[3] = tested on: Escherichia coli; experiment: Antibacterial activity against Escherichia coli assessed as inhibition of bacterial growth by microdilution method; assay type: functional
[4] = tested on: Enterobacter cloacae; experiment: Antibacterial activity against Enterobacter cloacae assessed as inhibition of bacterial growth by microdilution method; assay type: functional
[5] = tested on: Aspergillus niger; experiment: Antifungal activity against Aspergillus niger assessed as inhibition of fungal growth by microdilution method; assay type: functional
[6] = tested on: Candida albicans; experiment: Antifungal activity against Candida albicans assessed as inhibition of fungal growth by microdilution method; assay type: functional
[7] = tested on: Bacillus pumilus; experiment: Antibacterial activity against Bacillus pumilus assessed as inhibition of bacterial growth at MIC by microdilution method; assay type: functional
[8] = tested on: Enterococcus faecalis; experiment: Antibacterial activity against […] assessed as inhibition of bacterial growth at MIC by microdilution method; assay type: functional
[9] = tested on: Enterobacter cloacae; experiment: Antibacterial activity against Enterobacter cloacae assessed as inhibition of bacterial growth at MIC by microdilution method; assay type: functional
[10] = tested on: Aspergillus niger; experiment: Antifungal activity against Aspergillus niger assessed as inhibition of fungal growth at MIC by microdilution method; assay type: functional
[11] = tested on: Candida albicans; experiment: Antifungal activity against Candida albicans assessed as inhibition of fungal growth at MIC by microdilution method; assay type: functional
[12] = tested on: Bacillus pumilus; experiment: Antibacterial activity against Bacillus pumilus assessed as minimum bactericidal concentration by microdilution method; assay type: functional
[13] = tested on: Enterococcus faecalis; experiment: Antibacterial activity against […] assessed as minimum bactericidal concentration by microdilution method; assay type: functional
[14] = tested on: Enterobacter cloacae; experiment: Antibacterial activity against Enterobacter cloacae assessed as minimum bactericidal concentration by microdilution method; assay type: functional
[15] = tested on: Aspergillus niger; experiment: […] activity against Aspergillus niger assessed as […] by microdilution method; assay type: functional
[16] = tested on: Candida albicans; experiment: […] activity against Candida albicans assessed as […] by microdilution method; assay type: functional
[17] = tested on: Caco-2; experiment: Anticancer activity against human Caco-2 cells assessed as reduction in cell viability by MTT assay; assay type: functional, cell-based
[18] = Cytotoxicity against African green monkey Vero cells assessed as reduction in cell viability by MTT assay; assay type: toxicity, cell-based; settings: African green monkey (Chlorocebus sabaeus)
[19] = tested on: A549; experiment: Anticancer activity against human A549 cells assessed as reduction in cell viability incubated for 24 hrs by MTT assay; assay type: functional, cell-based; settings: A549, 24 h
[20] = tested on: MCF7; experiment: Anticancer activity against human MCF7 cells assessed as reduction in cell viability incubated for 24 hrs by MTT assay; assay type: functional, cell-based; settings: MCF7, 24 h
[21] = tested on: SK-OV-3; experiment: Anticancer activity against human SK-OV-3 cells assessed as reduction in cell viability incubated for 24 hrs by MTT assay; assay type: functional, cell-based; settings: SK-OV-3, 24 h
[22] = molecular target: Poly [ADP-ribose] polymerase 1 (Homo sapiens, UniProt P09874); experiment: Inhibition of PARP1 (unknown origin) incubated for 1 hrs by colorimetric analysis
[23] = tested on: MCF7; experiment: cells; assay type: functional, cell-based; settings: Homo sapiens, MCF7, 96 h
[24] = tested on: HCT-116; experiment: Anticancer activity against human HCT-116 cells assessed as reduction in cell viability incubated for 96 hrs by MTT assay; assay type: functional, cell-based; settings: HCT-116, 96 h
[25] = tested on: NUGC; experiment: Anticancer activity against human NUGC cells assessed as cell growth inhibition incubated for 24 hrs; assay type: functional, cell-based
[26] = tested on: DLD-1; experiment: Anticancer activity against human DLD-1 cells assessed as cell growth inhibition incubated for 24 hrs; assay type: functional, cell-based; settings: DLD-1, 24 h
[27] = tested on: HA22T cell line; experiment: Anticancer activity against human HA22T cells assessed as cell growth inhibition incubated for 24 hrs; assay type: functional, cell-based
[28] = tested on: HepG2; experiment: Anticancer activity against human HepG2 cells assessed as cell growth inhibition incubated for 24 hrs; assay type: functional, cell-based; settings: HepG2, 24 h
[29] = tested on: HONE1 cell line; experiment: Anticancer activity against human HONE1 cell line assessed as cell growth inhibition incubated for 24 hrs; assay type: functional, cell-based; settings: HONE1, 24 h
[30] = tested on: MCF7; experiment: Anticancer activity against human MCF7 cells assessed as cell growth inhibition incubated for 24 hrs; assay type: functional, cell-based; settings: MCF7, 24 h
[31] = tested on: HepG2; experiment: Anticancer activity against human HepG2 cells assessed as reduction in cell viability incubated for 24 hrs by MTT assay; assay type: functional, cell-based; settings: HepG2, 24 h
[32] = molecular target: NAD-dependent protein deacetylase sirtuin-1 (Homo sapiens, UniProt Q96EB6); experiment: Inhibition of recombinant human SIRT1 expressed in Escherichia coli using Fluor de Lys-SIRT1/2 substrate in presence of NAD+ by fluorescence microplate reader analysis
[33] = Cytotoxicity against human WI-38 cells assessed as cell growth inhibition incubated for 24 hrs; assay type: toxicity, cell-based
[34] = tested on: WI-38; experiment: Cytotoxicity against human WI-38 cells assessed as lethality incubated for 24 hrs; assay type: toxicity, cell-based; settings: wi-38, 24 h
[35] = tested on: U-937; experiment: Induction of apoptosis in human U-937 cells assessed as total apoptotic cells at 50 uM incubated for 50 hrs by FACS analysis; assay type: functional

Sequence of Poly [ADP-ribose] polymerase 1 (P09874 whole entry): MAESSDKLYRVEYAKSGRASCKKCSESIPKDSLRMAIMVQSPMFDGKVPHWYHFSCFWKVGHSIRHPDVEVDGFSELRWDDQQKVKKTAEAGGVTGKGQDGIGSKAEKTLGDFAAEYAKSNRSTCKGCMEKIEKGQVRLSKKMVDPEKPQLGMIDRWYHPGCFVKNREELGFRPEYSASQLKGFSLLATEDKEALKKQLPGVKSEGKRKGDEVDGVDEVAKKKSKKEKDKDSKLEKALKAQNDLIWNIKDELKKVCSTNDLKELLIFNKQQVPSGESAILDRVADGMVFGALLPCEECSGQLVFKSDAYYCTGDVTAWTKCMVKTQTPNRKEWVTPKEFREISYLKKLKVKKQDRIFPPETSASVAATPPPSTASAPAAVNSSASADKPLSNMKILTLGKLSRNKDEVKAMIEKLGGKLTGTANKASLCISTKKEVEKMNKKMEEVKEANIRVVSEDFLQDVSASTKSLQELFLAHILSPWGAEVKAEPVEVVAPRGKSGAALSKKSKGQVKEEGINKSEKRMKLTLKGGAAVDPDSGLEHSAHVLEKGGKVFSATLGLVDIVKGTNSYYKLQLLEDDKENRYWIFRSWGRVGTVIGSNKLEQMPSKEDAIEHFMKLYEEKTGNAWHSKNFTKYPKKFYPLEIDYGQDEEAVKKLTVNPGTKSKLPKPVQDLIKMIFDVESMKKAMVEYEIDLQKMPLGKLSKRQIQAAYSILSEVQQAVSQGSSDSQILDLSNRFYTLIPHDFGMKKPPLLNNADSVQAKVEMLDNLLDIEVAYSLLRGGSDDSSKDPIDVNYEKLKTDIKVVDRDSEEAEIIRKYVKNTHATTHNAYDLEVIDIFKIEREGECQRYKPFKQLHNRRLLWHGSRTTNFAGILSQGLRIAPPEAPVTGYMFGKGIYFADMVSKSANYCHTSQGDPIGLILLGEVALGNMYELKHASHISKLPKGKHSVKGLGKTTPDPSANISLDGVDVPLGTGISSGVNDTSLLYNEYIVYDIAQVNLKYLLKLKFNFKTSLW
Sequence of NAD-dependent protein deacetylase sirtuin-1 (Q96EB6 whole entry): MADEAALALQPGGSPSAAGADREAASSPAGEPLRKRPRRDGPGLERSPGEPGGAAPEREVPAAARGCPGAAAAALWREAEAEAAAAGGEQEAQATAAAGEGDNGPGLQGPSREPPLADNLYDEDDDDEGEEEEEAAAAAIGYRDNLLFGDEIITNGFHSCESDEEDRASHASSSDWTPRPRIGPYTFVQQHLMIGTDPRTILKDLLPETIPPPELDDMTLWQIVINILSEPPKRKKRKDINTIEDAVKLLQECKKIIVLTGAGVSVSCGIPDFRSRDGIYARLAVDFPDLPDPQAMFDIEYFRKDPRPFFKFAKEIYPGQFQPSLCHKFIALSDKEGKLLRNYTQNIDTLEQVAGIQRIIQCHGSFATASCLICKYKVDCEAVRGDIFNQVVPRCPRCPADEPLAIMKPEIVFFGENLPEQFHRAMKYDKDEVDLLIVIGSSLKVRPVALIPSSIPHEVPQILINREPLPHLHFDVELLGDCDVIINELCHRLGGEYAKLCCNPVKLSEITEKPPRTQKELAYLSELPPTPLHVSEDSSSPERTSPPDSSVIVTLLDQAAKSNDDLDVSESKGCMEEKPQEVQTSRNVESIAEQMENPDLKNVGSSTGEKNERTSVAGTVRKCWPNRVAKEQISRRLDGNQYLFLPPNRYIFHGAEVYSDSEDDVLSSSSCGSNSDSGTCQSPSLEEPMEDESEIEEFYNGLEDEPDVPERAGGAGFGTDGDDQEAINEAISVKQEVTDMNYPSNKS

Structure (SMILES): COc1ccc(N2C(=O)C3C(c4ccccc4)C(C#N)=C(N)OC3N(c3ccc(OC)cc3)C2=S)cc1 (stereo unspecified)
- MIC [1]: 15.6 µg/mL (≈ 30.4 µM)
- MIC [2]: 7.81 µg/mL (≈ 15.2 µM)
- MIC [3]: 3.91 µg/mL (≈ 7.63 µM)
- MIC [4]: 31.2 µg/mL (≈ 60.9 µM)
- MIC [5]: 62.5 µg/mL
- MIC [6]: 31.2 µg/mL
- inhibition (INH) [7]: 51.3%
- inhibition (INH) [8]: 78.6%
- inhibition (INH) [9]: 50.5%
- inhibition (INH) [10]: 88.3%
- inhibition (INH) [11]: 85.5%
- MBC [12]: 62.5 µg/mL (≈ 122 µM)
- MBC [13]: 31.3 µg/mL (≈ 61.1 µM)
- MBC [14]: 15.6 µg/mL (≈ 30.4 µM)
- MBC [15]: 125 µg/mL (≈ 244 µM)
- MBC [16]: 125 µg/mL (≈ 244 µM)
- IC50 [17]: 65.9 µg/mL (≈ 129 µM)
- IC50 [18]: 138 µg/mL (≈ 269 µM)

Structure (SMILES): CCOC(=O)C1=C(C)Oc2nc(C)n(Cc3cn(-c4ccc([N+](=O)[O-])cc4)nn3)c(=O)c2C1c1ccccc1 (stereo unspecified)
- IC50 [19]: 690 nM
- IC50 [20]: 71.4 µM
- IC50 [21]: 96.5 µM

Structure (SMILES): Nc1cc(-c2ccc([N+](=O)[O-])cc2)nc2c1C(c1cccs1)c1c([nH]c(=O)[nH]c1=O)O2 (stereo unspecified)
- IC50 [22]: 15.8 nM
- IC50 [23]: 660 nM
- IC50 [24]: 2760 nM

Structure (SMILES): N#CC1=C(N)C2C(=NC(NN)=NC2c2ccc(Cl)cc2)OC1=O (stereo unspecified)
- IC50 [25]: 328 nM
- IC50 [26]: 606 nM
- IC50 [27]: 282 nM
- IC50 [28]: 263 nM
- IC50 [29]: 201 nM
- IC50 [30]: 348 nM

Structure (SMILES): CCCCCCCCn1cc(Cn2c(C)nc3c(c2=O)C(c2ccccc2)C(C(=O)OCC)=C(C)O3)nn1 (stereo unspecified)
- IC50 [19]: 3620 nM
- IC50 [31]: 69.9 µM

Structure (SMILES): O=C1N=C2Oc3ccccc3CC2C(=O)N1c1ccccc1 (stereo unspecified)
- IC50 [32]: 4.2 µM

Structure (SMILES): N#CC1=C(N)C2C(=NC(NNc3ccccc3)=NC2c2ccc(Cl)cc2)OC1=O (stereo unspecified)
- IC50 [25]: 55 nM
- IC50 [26]: 146 nM
- IC50 [28]: 523 nM
- IC50 [29]: 536 nM
- IC50 [30]: 285 nM
- IC50 at 24 h [33]: 222 nM
- LC50 [34]: 18.38 µg/mL (≈ 45.2 µM)

Structure (SMILES): O=c1nc2oc3ccc4ccccc4c3cc-2c(=O)n1-c1ccccc1
- Activity [35]: 28.4%
